# Like-named read-outs stand apart in the source and are kept apart here.
# Experiment: PK Phase (Group 2): plasma concentrations and pharmacokinetics of Compound 18 and its metabolite Compound 4 after once daily ocular instillation of Compound 18 nanosuspension for 7 days
# Format: in vivo, New Zealand white rabbits
# Conditions: for Cmax / Tmax / AUC(0-t) / half-life: male, New Zealand white, rabbit, plasma, topical or ocular, 0.8 mg/kg; for AUC(0-t): read-out: AUC0-24; for Day 1 Compound 4 Plasma Concentration / Day 7 Compound 4 Plasma Concentration: metabolite after Compound 18 dosing
# Source text: This example illustrates the procedures and results for the levels of Compound 18 and its metabolite Compound 4 in plasma and ocular tissues of normotensive rabbits following ocular instillation of Compound 18 once daily for 7 consecutive days.
# Twenty five (25) male New Zealand white rabbits were divided into 5 groups of varying amounts of animals per group.
# The Test article, Compound 18 was formulated as a 2% nanosuspension in DI water containing 0.2% PS80 (polyoxyethylenesorbitan, monooleate (Tween 80)) and 0.4% HPMC (hydroxypropylmethylcellulose) at pH 6.77. Referred to herein as “Compound 18 nanosuspension.”
# The study consisted of three groups (Groups 1-3) of 19 male rabbits (NZW) that underwent once daily morning ocular installation (1 eyedrop) for 7 consecutive days (Day 0-6). Groups 4-5 each consisted of 3 male rabbits (NZW) that were not dosed.
# Blood samples (1 mL) were collected from the jugular vein at the intervals set out below for each group. The samples were then inverted several times following collection and held on wet ice until centrifuged. Samples were centrifuged within 60 minutes of collection under refrigeration (set at 5° C. for 10 minutes at 2000 g. […]
# Plasma and tissue samples from treated animals (Groups 1-3) were analyzed for Compound 18 and its metabolite Compound 4 concentrations by LC-MS/MS.
# Pharmacokinetic analysis was conducted using WinNonlin Version 6.2.1 (Pharsight, Mountain View, Calif.), operating as a validated software system. Noncompartmental analysis was conducted using the extravascular administration model for ocular instillation dosing.
# The peak plasma concentration, time to achieve peak plasma concentration, half-life, and area under the plasma concentration-time curve (Cmax, Tmax, T1/2, and AUC) were calculated from the PK phase individual animal plasma concentrations for each sampling time/dose group for Compound 18 and its metabolite Compound 4.
# BA Assay: Quantitation Range 0.05 to 100 ng/mL for Compound 18, 0.15 to 100 ng/mL for Compound 4.
# Plasma calibration standards (PLSTD-A) with Compound 18 concentrations ranging from 0.0500 to 100 ng/mL were prepared by spiking control rabbit plasma with appropriate calibration curve spiking solutions (SS-A). PLQC-A samples with concentrations of 0.150, 5.00, 50.0, and 80.0 ng/mL were prepared by spiking control rabbit plasma with appropriate SS-A-QC spiking solutions.
# Plasma calibration standards (PLSTD-B) with Compound 4 concentrations ranging from 0.150 to 100 ng/mL were prepared by spiking control rabbit plasma with appropriate calibration curve spiking solutions (SS-B). PLQC-B samples with concentrations of 0.450, 5.00, 50.0, and 80.0 ng/mL were prepared by spiking control rabbit plasma with appropriate SS-B-QC spiking solutions. PLQC-B-Dil samples at 800 ng/mL were prepared by spiking control rabbit plasma with the SS-B-QC-Dil spiking solution at 16,000 ng/mL, and then diluted 20× with control rabbit plasma prior to extraction.
# 1. Thaw plasma standards, plasma QC samples, ocular tissue QC samples, incurred plasma samples and ocular tissue samples (AH/VH) (if applicable) on wet ice. Control plasma can be thawed in tepid water. Vortex before taking aliquots.
# 2. Pipet 50 μL of water for Reagent Blank, 50 μL of control plasma for Double Blank and Blank, 50 μL of pre-spiked plasma for Standards and QC samples, 50 μL of incurred plasma samples (if applicable) into a 96 well plate.
# 5. Add 200 μL of working internal standard (WIS) solution to all remaining samples.
# 6. Seal the plate and vortex for approximately 5 minutes. Centrifuge the plate at 3500 rpm for 10 minutes at ˜4° C.
# 7. Transfer ˜200 μL of each sample supernatant into the appropriate wells of a 96 well plate. Submit for LC MS/MS analysis.
# A total of 25 rabbits were used for this study, including 19 treated rabbits and 6 control rabbits. […]
# [1] = Day 1, Compound 18 0.8 mg/kg ocular instillation, Mean, n=4
# [2] = Day 1, Compound 18 0.8 mg/kg ocular instillation, animal 207664
# [3] = Day 1, Compound 18 0.8 mg/kg ocular instillation, animal 207665
# [4] = Day 1, Compound 18 0.8 mg/kg ocular instillation, animal 207666
# [5] = Day 1, Compound 18 0.8 mg/kg ocular instillation, animal 207667
# [6] = Day 7, Compound 18 0.8 mg/kg ocular instillation, Mean, n=4
# [7] = Day 7, Compound 18 0.8 mg/kg ocular instillation, animal 207664
# [8] = Day 7, Compound 18 0.8 mg/kg ocular instillation, animal 207665
# [9] = Day 7, Compound 18 0.8 mg/kg ocular instillation, animal 207666
# [10] = Day 7, Compound 18 0.8 mg/kg ocular instillation, animal 207667
compound,measurement,setting,value
"CCCc1nn(C)c2c(=O)[nH]c(-c3cc(S(=O)(=O)N4CC(CCCO)C4)ccc3OCC)nc12 [Compound 4, 5-(2-ethoxy-5-((3-(3-hydroxypropyl)azetidin-1-yl)sulfonyl)phenyl)-1-methyl-3-propyl-1,6-dihydro-7H-pyrazolo[4,3-d]pyrimidin-7-one]",Cmax,[1],0.944 ± 0.565 ng/mL
same,Tmax,[1],30 min
same,AUC(0-t),[1],1.14 ± 0.957 ng·h/mL
same,Cmax,[2],0.497 ng/mL
same,Tmax,[2],30 min
same,AUC(0-t),[2],0.575 ng·h/mL
same,Cmax,[3],0.527 ng/mL
same,Tmax,[3],30 min
same,half-life,"Day 1, Compound 18 0.8 mg/kg ocular instillation, animal 207665 (one rabbit reportable)",24.8 min
same,AUC(0-t),[3],0.321 ng·h/mL
same,Cmax,[4],1.7 ng/mL
same,Tmax,[4],30 min
same,AUC(0-t),[4],2.46 ng·h/mL
same,Cmax,[5],1.05 ng/mL
same,Tmax,[5],30 min
same,AUC(0-t),[5],1.18 ng·h/mL
same,half-life,"Day 7, Compound 18 0.8 mg/kg ocular instillation, Mean, n=2",79.2 ± 42.1 min
same,Cmax,[6],0.963 ± 0.17 ng/mL
same,Tmax,[6],45 ± 17.4 min
same,AUC(0-t),[6],1.71 ± 0.416 ng·h/mL
same,Cmax,[7],0.851 ng/mL
same,Tmax,[7],30 min
same,AUC(0-t),[7],1.13 ng·h/mL
same,Cmax,[8],0.938 ng/mL
same,Tmax,[8],30 min
same,half-life,[8],49.4 min
same,AUC(0-t),[8],1.72 ng·h/mL
same,Cmax,[9],0.851 ng/mL
same,Tmax,[9],60 min
same,half-life,[9],109 min
same,AUC(0-t),[9],1.92 ng·h/mL
same,Cmax,[10],1.21 ng/mL
same,Tmax,[10],60 min
same,AUC(0-t),[10],2.08 ng·h/mL
same,Day 1 Compound 4 Plasma Concentration,"2 h, animal 207665",BQL (BQL = Below lower limit of quantitation (0.0500 ng/mL for Compound 18 and 0.150 ng/mL for Compound 4))
same,Day 1 Compound 4 Plasma Concentration,"4 h, animal 207664",BQL (BQL = Below lower limit of quantitation (0.0500 ng/mL for Compound 18 and 0.150 ng/mL for Compound 4))
same,Day 7 Compound 4 Plasma Concentration,"4 h, animal 207664",BQL (BQL = Below lower limit of quantitation (0.0500 ng/mL for Compound 18 and 0.150 ng/mL for Compound 4))
same,Day 1 Compound 4 Plasma Concentration,"4 h, animal 207665",BQL (BQL = Below lower limit of quantitation (0.0500 ng/mL for Compound 18 and 0.150 ng/mL for Compound 4))
same,Day 7 Compound 4 Plasma Concentration,"4 h, animal 207665",BQL (BQL = Below lower limit of quantitation (0.0500 ng/mL for Compound 18 and 0.150 ng/mL for Compound 4))
same,Day 1 Compound 4 Plasma Concentration,"4 h, animal 207667",BQL (BQL = Below lower limit of quantitation (0.0500 ng/mL for Compound 18 and 0.150 ng/mL for Compound 4))
same,Day 1 Compound 4 Plasma Concentration,"8 h, animal 207664",BQL (BQL = Below lower limit of quantitation (0.0500 ng/mL for Compound 18 and 0.150 ng/mL for Compound 4))
same,Day 7 Compound 4 Plasma Concentration,"8 h, animal 207664",BQL (BQL = Below lower limit of quantitation (0.0500 ng/mL for Compound 18 and 0.150 ng/mL for Compound 4))
same,Day 1 Compound 4 Plasma Concentration,"8 h, animal 207665",BQL (BQL = Below lower limit of quantitation (0.0500 ng/mL for Compound 18 and 0.150 ng/mL for Compound 4))
same,Day 1 Compound 4 Plasma Concentration,"8 h, animal 207666",BQL (BQL = Below lower limit of quantitation (0.0500 ng/mL for Compound 18 and 0.150 ng/mL for Compound 4))
same,Day 7 Compound 4 Plasma Concentration,"8 h, animal 207666",BQL (BQL = Below lower limit of quantitation (0.0500 ng/mL for Compound 18 and 0.150 ng/mL for Compound 4))
same,Day 1 Compound 4 Plasma Concentration,"8 h, animal 207667",BQL (BQL = Below lower limit of quantitation (0.0500 ng/mL for Compound 18 and 0.150 ng/mL for Compound 4))
same,Day 7 Compound 4 Plasma Concentration,"8 h, animal 207667",BQL (BQL = Below lower limit of quantitation (0.0500 ng/mL for Compound 18 and 0.150 ng/mL for Compound 4))
same,Day 1 Compound 4 Plasma Concentration,"24 h, animal 207664",BQL (BQL = Below lower limit of quantitation (0.0500 ng/mL for Compound 18 and 0.150 ng/mL for Compound 4))
same,Day 7 Compound 4 Plasma Concentration,"24 h, animal 207664",BQL (BQL = Below lower limit of quantitation (0.0500 ng/mL for Compound 18 and 0.150 ng/mL for Compound 4))
same,Day 1 Compound 4 Plasma Concentration,"24 h, animal 207665",BQL (BQL = Below lower limit of quantitation (0.0500 ng/mL for Compound 18 and 0.150 ng/mL for Compound 4))
same,Day 7 Compound 4 Plasma Concentration,"24 h, animal 207665",BQL (BQL = Below lower limit of quantitation (0.0500 ng/mL for Compound 18 and 0.150 ng/mL for Compound 4))
same,Day 1 Compound 4 Plasma Concentration,"24 h, animal 207666",BQL (BQL = Below lower limit of quantitation (0.0500 ng/mL for Compound 18 and 0.150 ng/mL for Compound 4))
same,Day 7 Compound 4 Plasma Concentration,"24 h, animal 207666",BQL (BQL = Below lower limit of quantitation (0.0500 ng/mL for Compound 18 and 0.150 ng/mL for Compound 4))
same,Day 1 Compound 4 Plasma Concentration,"24 h, animal 207667",BQL (BQL = Below lower limit of quantitation (0.0500 ng/mL for Compound 18 and 0.150 ng/mL for Compound 4))
same,Day 7 Compound 4 Plasma Concentration,"24 h, animal 207667",BQL (BQL = Below lower limit of quantitation (0.0500 ng/mL for Compound 18 and 0.150 ng/mL for Compound 4))

# From patent publication US20220153746A1, “NITROGEN OXIDE-DONATING PDE-5 AND/OR PDE-6 INHIBITOR COMPOUNDS, AND USES THEREOF” (ILDONG PHARMACEUTICAL CO., LTD., priority 2020, published 2022)
